8 compounds from patent US20230295165A1, “COMPOUNDS” (The Provost, Fellows, Foundation Scholars, and the other …, priority 2020, published 2023) can be followed below.

Molecules are shown by their SMILES.

T1 sequence (Q9BXR0 whole entry): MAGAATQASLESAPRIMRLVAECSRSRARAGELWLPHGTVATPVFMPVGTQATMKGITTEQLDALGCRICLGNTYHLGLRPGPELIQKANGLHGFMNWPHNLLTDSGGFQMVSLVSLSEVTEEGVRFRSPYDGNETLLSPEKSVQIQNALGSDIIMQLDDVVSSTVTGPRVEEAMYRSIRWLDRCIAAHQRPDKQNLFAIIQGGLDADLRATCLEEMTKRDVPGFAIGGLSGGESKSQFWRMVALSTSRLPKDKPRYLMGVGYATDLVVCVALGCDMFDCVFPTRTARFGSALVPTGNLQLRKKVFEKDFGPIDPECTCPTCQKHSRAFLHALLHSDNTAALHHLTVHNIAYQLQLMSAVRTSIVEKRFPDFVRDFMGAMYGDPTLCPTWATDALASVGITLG
T1 sequence (Q9H974 whole entry partner): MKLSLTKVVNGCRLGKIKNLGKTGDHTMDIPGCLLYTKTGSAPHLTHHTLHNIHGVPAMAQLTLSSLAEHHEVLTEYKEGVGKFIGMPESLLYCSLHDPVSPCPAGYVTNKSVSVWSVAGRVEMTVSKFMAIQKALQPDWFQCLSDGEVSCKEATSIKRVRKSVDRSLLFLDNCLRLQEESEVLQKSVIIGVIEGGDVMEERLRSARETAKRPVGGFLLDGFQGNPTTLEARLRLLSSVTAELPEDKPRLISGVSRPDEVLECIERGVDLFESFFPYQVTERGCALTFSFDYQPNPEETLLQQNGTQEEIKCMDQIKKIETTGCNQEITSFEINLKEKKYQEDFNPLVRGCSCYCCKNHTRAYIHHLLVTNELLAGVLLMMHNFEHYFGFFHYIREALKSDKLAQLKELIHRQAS

One experiment concerns the target T1, queuine-tRNA ribosyltransferase enzyme complex (hQTRT1:hQTRT2) (Homo sapiens, UniProt Q9BXR0).
T1 construct: polyhistidine tag (N); made in house; host or cells: E. coli BL21(DE3) tgt::Kmr
Kind of experiment: [8-14C] guanine displacement assay (tRNA*). Conditions: 50 μM compound, 100 nM hQTRT1:hQTRT2, 30 mins at 37° C.; background ≤2%; ≥5% counts as positive substrate for TGT. Format: biochemical. The protocol: Compounds capable of acting as a queuine-tRNA ribosyltransferase enzyme complex substrate may be identified by use of a displacement assay as described below:
Production of [8-^14C] Guanine Labeled tRNA (tRNA*)
Before adding the 8-[^14C] guanine solution to the reaction the solution was neutralised with an equal volume (vol/vol) 0.01 M NaOH, as the [8-^14C] Guanine is supplied in 0.01 M HCl aqueous solution. In vitro synthesised human tyrosyl tRNA was prepared by T7 transcription in ultrapure nuclease-free water as described previously (Alqasem et al., 2020). Recombinant human QTRT1 enzyme containing an N-terminalpolyhistidine tag and human QTRT2 containing a C-terminal TEV-Strep-Tag®II tag were produced in BL21(DE3) tgt::Kmr cells as described previously (Alqasem et al., 2020).
The reaction was incubated for 1 hour at 37° C. […] The tRNA* pellet was resuspended in 30 μL nuclease-free water and the concentration measured spectrophotometrically at A260. […]
After 30 mins the reactions were quenched by mixing with 2.5 ml ice-cold 10% trichloroacetic acid (TCA) and placed on ice for one hour to precipitate the tRNA. […] The vacuum manifold was disassembled, the filters recovered and dried again at room temperature before being placed in scintillation vials containing 10 ml of Ecoscint A and radioactivity levels measured by scintillation counting. […]
As to `Nc1nc2[nH]cc(CN[C@H]3C=C[C@H](O)[C@@H]3O)c2c(=O)[nH]1` [queuine base, queuine], the “displacement of the [14C] guanine” value is given as over 98%.

The test system of another experiment is RA synovial primary fibroblasts (RASFCs). Kind of experiment: Synovial fibroblast assay, IL-6 ELISA on TNF-treated RASFC supernatants. Format: cell-based, human. The following applies: 200 μm compound, TNF 10 ng/ml, supernatants at 72 hr, n=3 RASFCs, DMSO vehicle = 100%. As for the experimental part: To assess the compounds in human rheumatoid arthritis samples the following protocol was employed:
Isolation of Primary Fibroblasts (RASFCs): RA synovial biopsies were digested with 1 mg/ml collagenase type 1 (Worthington Biochemical, Freehold, NJ, USA) in RPMI-1640 (Gibco-BRL, Paisley, UK) for 4 hr at 37° C. in humidified air with 5% CO2. Dissociated cells were grown to confluence in RPMI 1640, 10% FCS (Gibco-BRL), 10 ml of 1 mmol/l HEPES (Gibco-BRL), penicillin (100 units/ml; Bioscience), streptomycin (100 units/ml; Bioscience) and fungizone (0.25 μg/ml; Bioscience) before passaging. Cells were used between passages 3-8.
Compounds (200 μm) were Tested on n=3 RASFCs
RASFCs were grown to 80% confluency in 48 well plates. RASFCs were treated with TNF (10 ng/ml) in the presence of 200 μm of each compound. Media was replaced after 24 h and fresh media and compound was added. Cell supernatants were collected at 72 hr time point. DMSO treated cells were used as a vehicle control (Red dotted line represents DMSO control). IL-6 ELISA: Levels of pro-inflammatory cytokine IL6 were measured in cultured RASFC supernatants by specific ELISA (R&D systems, UK) according to manufacturer's conditions.
This assay measures the production of IL-6 as an indication of immune system activation: the lower the value the better from the point of view of alleviating RA symptoms. All compounds of the invention show an effect compared to the DMSO vehicle that represents no treatment. […]
(An ELISA detects its analyte on a solid surface through an enzyme-linked reagent.)
As to `CC(C)(CCNCc1c[nH]c2nc(N)[nH]c(=O)c12)c1ccccc1.Cl` [Example 1, N-((2-amino-4-oxo-4,7-dihydro-3H-pyrrolo[2,3-d]pyrimidin-5-yl)methyl)-3-methyl-3-phenylbutan-1-ammonium chloride], the “Level of IL6 expression compared to vehicle” value (“Level … compared to vehicle” for short) is recorded as “Reduction to 37%”.
On to `Cl.Nc1nc2[nH]cc(CNCCNc3ccccc3)c2c(=O)[nH]1` [Example 5, N-((2-amino-4-oxo-4,7-dihydro-3H-pyrrolo[2,3-d]pyrimidin-5-yl)methyl)-2-(phenylamino)ethan-1-aminium chloride], for which the “Level … compared to vehicle” value is on record as “Reduction to 48%”.
As to `Cl.Nc1nc2[nH]cc(CNCCC(=O)c3ccccc3)c2c(=O)[nH]1` [Example 7, N-((2-amino-4-oxo-4,7-dihydro-3H-pyrrolo[2,3-d]pyrimidin-5-yl)methyl)-3-oxo-3-phenylpropan-1-ammonium chloride], the “Level … compared to vehicle” value is “Reduction to 32%”.
Same read-out and setting: with `Cl.Nc1nc2[nH]cc(CNCCC(c3ccccc3)c3ccccc3)c2c(=O)[nH]1` [Example 10, N-((2-amino-4-oxo-4,7-dihydro-3H-pyrrolo[2,3-d]pyrimidin-5-yl)methyl)-3,3-diphenylpropan-1-ammonium chloride] the entry was “Reduction to 56%”; with `Cl.Nc1nc2[nH]cc(CNCC[C@@H](O)c3ccccc3)c2c(=O)[nH]1` [Example 12, (R)-N-((2-amino-4-oxo-4,7-dihydro-3H-pyrrolo[2,3-d]pyrimidin-5-yl)methyl)-3-hydroxy-3-phenylpropan-1-aminium chloride], “Reduction to 55%”; with `Cl.Nc1nc2[nH]cc(CNCC[C@H](O)c3ccccc3)c2c(=O)[nH]1` [Example 13, (S)-N-((2-amino-4-oxo-4,7-dihydro-3H-pyrrolo[2,3-d]pyrimidin-5-yl)methyl)-3-hydroxy-3-phenylpropan-1-aminium chloride], “Reduction to 67%”.
The same measure, in the same setting: with `C[C@@H]1CCN(C(=O)CC#N)C[C@@H]1N(C)c1ncnc2[nH]ccc12` [Positive control (Tofacitinib), Tofacitinib, reference compound] the entry was “Reduction to 57%”.
